In US5401490A, “Markers of tissue hypoxia” (priority 1989, dated 1995):

Tests used:
EMT-6 cells = assay: Hypoxic cell radiosensitizing ability (post-irradiation survival); assay type: cell-based, mouse; settings: for sensitizer enhancement ratio (SER): 50 μM, 90% cell kill, hypoxic; for sensitisation to lethal effects of ionising radiation: in words
Description: Cell cultures were examined under oxic (air) and hypoxic incubation, with various concentrations of test drug, and at several doses of radiation.

[1] = Blood clearance and whole body elimination of radioactivity; assay type: in vivo, BALB/C mice; settings: for major route of excretion: high kidney radioactivity at short time periods; for blood clearance / excretion of radioactivity from the body: i.v. bolus, ^125 I-labelled
Excerpt: Each data point represents the mean of 6 animals.
Tables 1 and 2 show the percent of injected IAZG and IAZA respectively per gram of wet tissue for selected tissues excised from BALB/C mice bearing EMT-6 tumors. This tumor model is known to have a high hypoxic fraction (0.33) (16). […] Hepatobiliary excretion may play a role in blood clearance as evidenced by elevated liver radioactivity and the appearance of activity in the intestine. Some oxidative or reductive metabolites of the 2-nitroimidazoles may also become bound to liver tissue, as was postulated in an in vivo study with ^14 C-MISO (6). This supposition is supported by the persistence of liver radioactivity at longer time periods. […] At 8 and 24 hours thyroid levels of IAZG are 7.2 and 30.9% of the total body activity and for IAZA they are 7.9 and 33.8% of total body activity.
EXAMPLE 11 TISSUE DISTRIBUTION AND EXCRETION
Tumor propagation of EMT-6 tumors in BALB/C mice was accomplished by subcutaneous injection of a cell suspension (10^5 cells in 0.1 mL) as described previously (10). Tumors reached about 10 mm in diameter (≈0.5 g) at 12 to 14 days, at which time each animal was given a bolus intravenous injection of ^125 I-labelled test drug via the tail vein (40 to 60 kBq in 0.1 mL). At set time periods the animals were asphyxiated with CO2 and exsanguinated via cardiac puncture. Tissues were dissected, weighed wet into vials and counted for ^125 I-activity. Whole-body activity was determined by summation of total activity in tissues and in residual carcass, and blood activity was determined from the blood aliquot, assuming blood to be 6.5% of the total body weight.

[2] = Long term storage in solution; assay type: physicochemical
Excerpt: Both IAZA and IAZG are synthesised, in high yield, from commercial precursors (FIG. 1) and undergo high-yield isotope exchange reactions with radioiodine to produce the required radiolabelled test compounds. […] Therefore, the compounds were stored as a dry residue in multidose vials under refrigeration and were reconstituted with the appropriate solvent just prior to use. IAZP is similarly synthesised. It will be known to those skilled in the art that other radio halogens may be similarly employed in the exchange reaction.

SMILES | sensitizer enhancement ratio (SER) (EMT-6 cells) | sensitisation to lethal effects of ionising radiation (EMT-6 cells) | in vitro radiosensitizer efficiency, comparison (EMT-6 cells; vs azomycin nucleoside class) | initial clearance rates, comparison ([1]; blood and whole body, IAZG vs IAZA) | major route of excretion [1] | blood clearance [1] | excretion of radioactivity from the body [1] | stability on long term storage in solution [2]
O=[N+]([O-])c1nccn1[C@@H]1O[C@H](CI)[C@H](O)[C@H](O)[C@H]1O [IAZG, 1-(6-iodo-6-deoxy-β-D-galactopyranosyl)-2-nitroimidazole] | about 1.8 | sensitise these cells to the lethal effects of ionising radiation | most efficient in vitro radiosensitizer of the azomycin nucleoside class produced to date | greater for IAZG than IAZA | via the urine | initial rapid blood clearance | rapid excretion of radioactivity from the body | some decomposition of the pure compounds
O=[N+]([O-])c1nccn1[C@@H]1O[C@H](CI)[C@@H](O)[C@@H]1O [IAZA, 1-(5-iodo-5-deoxy-β-D-arabino-furanosyl)-2-nitroimidazole] | ~1.4 | sensitise these cells to the lethal effects of ionising radiation | – | – | via the urine | initial rapid blood clearance | rapid excretion of radioactivity from the body | some decomposition of the pure compounds
